Data taken from paper PMC6035319 (Saudi Pharmaceutical Journal : SPJ, 2018).

Key:
[1] = target: CYP3A4 (Homo sapiens, UniProt P08684); type: biochemical
[2] = target: T1, CYP1A2 (Homo sapiens, UniProt P05177); assay: HPLC of acetaminophen formed from phenacetin in pooled human liver microsomes; type: biochemical
T1 sequence (P05177 2-516): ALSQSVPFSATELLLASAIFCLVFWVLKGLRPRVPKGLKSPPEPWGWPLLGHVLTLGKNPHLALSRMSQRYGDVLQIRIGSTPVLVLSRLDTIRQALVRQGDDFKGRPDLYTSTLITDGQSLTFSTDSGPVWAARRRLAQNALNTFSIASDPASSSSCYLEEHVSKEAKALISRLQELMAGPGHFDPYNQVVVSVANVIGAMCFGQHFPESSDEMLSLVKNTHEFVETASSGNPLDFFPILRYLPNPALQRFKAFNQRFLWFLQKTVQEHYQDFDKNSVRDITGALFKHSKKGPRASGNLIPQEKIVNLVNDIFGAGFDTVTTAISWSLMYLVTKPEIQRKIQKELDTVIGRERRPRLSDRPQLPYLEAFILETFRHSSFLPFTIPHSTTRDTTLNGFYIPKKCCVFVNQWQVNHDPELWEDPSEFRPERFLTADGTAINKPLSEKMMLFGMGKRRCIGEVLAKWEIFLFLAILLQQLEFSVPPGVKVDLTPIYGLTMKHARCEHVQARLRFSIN

Chain of CYP3A4 (P08684 2-503): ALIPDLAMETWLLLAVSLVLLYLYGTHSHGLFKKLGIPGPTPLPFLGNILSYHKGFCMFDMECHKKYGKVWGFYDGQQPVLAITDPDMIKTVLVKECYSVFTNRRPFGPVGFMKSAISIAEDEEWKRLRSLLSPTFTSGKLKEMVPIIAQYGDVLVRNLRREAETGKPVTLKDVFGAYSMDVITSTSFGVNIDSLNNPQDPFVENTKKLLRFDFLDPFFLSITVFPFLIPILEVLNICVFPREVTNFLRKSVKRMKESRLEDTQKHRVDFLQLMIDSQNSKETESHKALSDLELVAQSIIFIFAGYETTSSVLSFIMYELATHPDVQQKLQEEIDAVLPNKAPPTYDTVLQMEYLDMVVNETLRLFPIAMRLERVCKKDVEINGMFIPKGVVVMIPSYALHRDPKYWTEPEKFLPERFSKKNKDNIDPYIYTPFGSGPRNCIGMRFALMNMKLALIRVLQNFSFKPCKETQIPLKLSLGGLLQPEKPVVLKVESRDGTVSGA

- IC50 [1]: 25.2 ± 3.1 µM
- IC50 [2]: 26.5 ± 2.9 µM
Structure (SMILES): CC1=CC(=O)C(C(C)C)=CC1=O [thymoquinone]
